Consider 2 compounds from US7259161B2, “Compositions useful as inhibitors of JAK and other protein kinases” (Vertex Pharmaceuticals Incorporated, priority 2002, dated 2007).

The target of experiment [1] is T1, JAK3 (Homo sapiens, UniProt P52333).
T1 sequence (P52333 1-1124): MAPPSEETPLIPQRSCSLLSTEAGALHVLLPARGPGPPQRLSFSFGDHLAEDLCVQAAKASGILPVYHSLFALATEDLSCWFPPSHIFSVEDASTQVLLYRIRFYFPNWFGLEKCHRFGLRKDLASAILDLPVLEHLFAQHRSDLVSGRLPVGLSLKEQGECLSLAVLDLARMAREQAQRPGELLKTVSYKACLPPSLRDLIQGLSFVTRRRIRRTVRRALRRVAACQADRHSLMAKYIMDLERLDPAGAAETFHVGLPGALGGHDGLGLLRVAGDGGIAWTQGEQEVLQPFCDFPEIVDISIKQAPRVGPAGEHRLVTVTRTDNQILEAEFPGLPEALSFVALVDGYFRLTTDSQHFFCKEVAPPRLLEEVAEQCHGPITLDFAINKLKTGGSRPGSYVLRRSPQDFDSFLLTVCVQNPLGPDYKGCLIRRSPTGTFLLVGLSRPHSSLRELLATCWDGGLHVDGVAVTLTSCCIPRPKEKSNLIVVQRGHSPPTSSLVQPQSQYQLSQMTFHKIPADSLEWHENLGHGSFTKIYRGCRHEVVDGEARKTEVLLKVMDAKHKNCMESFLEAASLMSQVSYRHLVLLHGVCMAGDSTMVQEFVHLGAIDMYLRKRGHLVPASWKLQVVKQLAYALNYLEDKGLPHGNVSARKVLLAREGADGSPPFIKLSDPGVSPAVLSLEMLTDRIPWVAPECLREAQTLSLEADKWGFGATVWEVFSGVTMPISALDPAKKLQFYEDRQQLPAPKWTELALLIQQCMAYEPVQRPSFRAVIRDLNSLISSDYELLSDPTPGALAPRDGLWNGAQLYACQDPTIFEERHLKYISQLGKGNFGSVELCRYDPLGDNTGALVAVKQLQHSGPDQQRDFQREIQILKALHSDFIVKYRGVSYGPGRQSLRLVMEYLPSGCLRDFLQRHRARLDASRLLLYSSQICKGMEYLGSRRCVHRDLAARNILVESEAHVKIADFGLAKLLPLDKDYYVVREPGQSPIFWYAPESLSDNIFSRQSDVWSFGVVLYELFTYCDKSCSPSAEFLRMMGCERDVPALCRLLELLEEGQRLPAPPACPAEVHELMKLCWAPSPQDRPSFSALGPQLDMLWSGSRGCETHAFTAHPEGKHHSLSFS
The experiment can be described thus: JAK3 inhibition assay. The class given is biochemical. The following applies: 2 μM ATP, ELISA read at 450 nm. On the procedure: Compounds were screened for their ability to inhibit JAK3 according to the method described by G. R. Brown, et al, Bioorg. Med. Chem. Lett. 2000, vol. 10, pp 575–579 in the following manner. Into Maxisorb plates, previously coated at 4° C. with Poly (Glu, Ala, Tyr) 6:3:1 then washed with phosphate buffered saline 0.05% and Tween (PBST), was added 2 μM ATP, 5 MM MgCl2, and a solution of compound in DMSO. The reaction was started with JAK enzyme and the plates incubated for 60 minutes at 30° C. The plates were then washed with PBST, 100 μL HRP-Conjugated 4G10 antibody was added, and the plate incubated for 90 minutes at 30° C. The plate was again washed with PBST, 100 μL TMB solution is added, and the plates were incubated for another 30 minutes at 30° C. Sulfuric acid (100 μL of 1M) was added to stop the reaction and the plate is read at 450 nm to obtain the optical densities for analysis to determine Ki values.

Experiment [2] concerns the target JNK3 (Homo sapiens, UniProt P53779). Put plainly: JNK3 inhibition assay (spectrophotometric coupled-enzyme assay). The class given is biochemical. The following applies: 10 μM ATP, 10 nM activated JNK3. On the procedure:
Compounds were assayed for the inhibition of JNK3 by a spectrophotometric coupled-enzyme assay. In this assay, a fixed concentration of activated JNK3 (10 nM) was incubated with various concentrations of a potential inhibitor dissolved in DMSO for 10 minutes at 30° C. in a buffer containing 0.1 M HEPES buffer, pH 7.5, containing 10 mM MgCl2, 2.5 mM phosphoenolpyruvate, 200 μM NADH, 150 μg/mL pyruvate kinase, 50 μg/mL lactate dehydrogenase, and 200 μM EGF receptor peptide. The EGF receptor peptide is a phosphoryl acceptor in the JNK3-catalyzed kinase reaction. The reaction was initiated by the addition of 10 μM ATP and the assay plate is inserted into the spectrophotometer's assay plate compartment that was maintained at 30° C. The decrease of absorbance at 340 nm was monitored as a function of time. The rate data as a function of inhibitor concentration was fitted to competitive inhibition kinetic model to determine the Ki.

As usually defined, the Ki is a dissociation constant, usually derived from enzyme kinetics or from competition with a known ligand.

JNK3, sequence (P53779 whole entry, species assumed): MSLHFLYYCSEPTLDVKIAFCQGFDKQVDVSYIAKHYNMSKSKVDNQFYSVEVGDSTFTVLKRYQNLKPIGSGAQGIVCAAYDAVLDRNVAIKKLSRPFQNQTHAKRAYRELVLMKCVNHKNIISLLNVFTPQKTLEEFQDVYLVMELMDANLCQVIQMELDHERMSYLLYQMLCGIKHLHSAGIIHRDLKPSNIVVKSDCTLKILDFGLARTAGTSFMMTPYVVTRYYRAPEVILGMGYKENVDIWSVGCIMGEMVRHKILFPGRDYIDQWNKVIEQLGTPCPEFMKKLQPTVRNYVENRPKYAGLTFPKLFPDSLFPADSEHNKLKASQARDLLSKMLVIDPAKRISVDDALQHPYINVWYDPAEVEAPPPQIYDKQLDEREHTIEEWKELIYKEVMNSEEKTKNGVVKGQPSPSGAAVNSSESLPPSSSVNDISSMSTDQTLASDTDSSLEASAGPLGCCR

As to `NS(=O)(=O)c1ccc(Nc2nccc(-c3ccc4c(c3)NC(=O)CO4)n2)cc1` [IVa-23], the values for the Ki in experiment [1] and in experiment [2] were less than 5 µM and less than 1 µM, respectively.
For `CN1C(=O)COc2ccc(-c3ccnc(Nc4ccc(S(N)(=O)=O)cc4)n3)cc21` [IVa-24], the Ki in experiment [1] is less than 5 µM; in experiment [2] it was less than 1 µM.
